Experimental data taken from US11173124B2, “Oral delivery of GLP-1 peptide analogs” (MEDIMMUNE LIMITED, priority 2017, dated 2021).
Where two headings read alike, the source gives them in different places. Starred links: 1 amine or outer side, 2 acyl side, 3 side chain; linkers in the order of their positions; H or OH if unused. Non-standard residues stand in square brackets, D forms with d. Residues, ends and D or L forms follow the SMILES beside them. Groups on a side chain read outwards from the residue. *: point of attachment. γGlu = O=C(O)[C@H](CCC(=O)[*:2])N[*:1]; αMeF = C[C@](N)(Cc1ccccc1)C(=O)O; αMeK = C[C@](N)(CCCCN)C(=O)O; Lauroyl = CCCCCCCCCCCC(=O)*; αMeS = C[C@](N)(CO)C(=O)O; AEEA = NCCOCCOCC(=O)O; Aib = CC(C)(N)C(=O)O

What was measured:
[1] = Second rat intraduodenal study, permeation enhancers from Caco-2 (Example 5); assay type: in vivo; conditions: for AUC / Cmax / Tmax / half-life: in vivo, pH 8, rat
Method: Solution formulations comprising GLP-1 peptide analogs were injected into rats in the duodenum segment of the small intestine. The first ID study involved the use of sodium caprate as the permeation enhancer and the SEQ ID NO:3 GLP-1 peptide analog. Absolute bioavailability (% F) is a percentage-expressed measure of systemic drug exposure after oral, or in the current example intraduodenal, administration to the systemic exposure generated with intravenous (IV) administration of drug solution. Absolute bioavailability, (% F), is calculated as a percentage of systemic, or blood, drug concentration area under curve (AUC) of the AUC of IV administration adjusted to the amounts of drug given via these routes of administration.
Following the initial rat ID study, a second rat ID administration study was performed to evaluate the influence of permeation enhancers identified from the Caco-2 model study. That is, tetradecyl maltoside, sodium chenodeoxycholate, and combination of sodium chenodeoxycholate and propyl gallate were tested for their effect on oral bioavailability of the SEQ ID NO:3 peptide (Table 6).

GLP-1 receptor [2] = molecular target: T1, GLP-1 receptor (Rattus norvegicus, UniProt P32301); assay: cAMP assay, INSle assay as described in WO 2016/198544; assay type: cell-based; conditions: in vitro potency at the GLP-1 receptor
T1 construct: endogenous in cells; host or cells: INS-1E rat insulinoma cells (printed as 'INSle')
T1 sequence (P32301 22-463): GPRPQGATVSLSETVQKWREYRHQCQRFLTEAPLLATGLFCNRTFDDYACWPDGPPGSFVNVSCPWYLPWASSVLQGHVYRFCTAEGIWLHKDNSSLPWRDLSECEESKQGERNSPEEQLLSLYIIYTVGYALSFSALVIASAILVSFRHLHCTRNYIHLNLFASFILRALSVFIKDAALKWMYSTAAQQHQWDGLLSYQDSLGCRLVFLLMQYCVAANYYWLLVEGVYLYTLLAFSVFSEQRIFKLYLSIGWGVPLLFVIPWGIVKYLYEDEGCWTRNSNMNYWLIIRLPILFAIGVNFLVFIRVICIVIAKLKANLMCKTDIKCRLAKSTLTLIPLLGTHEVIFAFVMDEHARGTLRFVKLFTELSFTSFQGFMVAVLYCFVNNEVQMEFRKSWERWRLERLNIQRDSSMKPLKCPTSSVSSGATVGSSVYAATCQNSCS
Excerpt: (§1) The biological activity of a GLP-1 peptide analog can be evaluated, for example, by assessing the ability of the peptide to activate a receptor (e.g., a GLP-1 receptor). Peptide activation of such receptors results in downstream accumulation of cAMP second messenger which can be measured in a functional activity assay.

[3] = Canine study, Na CDC:PG ratios, PE amount and MEDI7219 dose in enterically coated tablets (Example 22, Table 29); assay type: in vivo; conditions: Beagle dogs, oral enterically coated tablet
Excerpt: The following materials and methods were used for quantitative measurements of GLP-1 peptide analogs in plasma (e.g., rat or dog plasma) in the Examples below. These methods used a SCIEX 6600 TripleTOF mass spectrometer coupled with a Shimadzu ultra-high performance liquid chromatography (UHPLC). The specificity of the method was ensured by the retention time, the selected mass for Single-Reaction-Monitoring (SRM) mode, and the selected fragment mass in MS/MS (MS^2) mode.
The plasma extraction procedure used the following steps: • Samples, standards, and quality controls were incubated until they reached room temperature. They were then incubated at 60° C. for 2 minutes and cooled down to room temperature, vortexed, and spun down. • 70 μL of samples, standards, or quality controls were transferred into a 1 mL 96-well plate. • In each well, 420 uL of Precipitation Solution was added. The plate was sealed and shook for 10 minutes on a plate shaker at 600 rpm. • The plate was centrifuged at 18G, 2500 RFC, 20° C. for 10 minutes. • The plate was carefully removed, and the upper clear supernatant was extracted with a 200 uL multichannel pipette into a new 96-well protein lobind plate. The supernatant was extracted twice for each well, and the supernatants were combined. • The Plate was placed in TurboVap and the extracted supernatant was dried completely with heated (65° C.) Nitrogen gas at 60 Fahrenheit (Fh). • After the plate was completely dry, the plates were covered and incubated at room temperature for at least 30 minutes until the plate returned back to ambient temperature. • 150 μL of Reconstitution solution was added to each well. The plate was covered with a pierceable place seal and shaken at 600 rpm for 10 minutes. • The samples were submitted to the LC-MS/MS on the same day of Preparation
Quantification of the data obtained using the high resolution SCIEX 6600 instrument was then performed as follows: • For the quantification, extracted ion chromatograms (XIC) using 0.2 Da m/z extraction window centered on the accurate mass of each fragment ion were generated. Accurate mass was calculated from the structure of the compound. […] Concentrations of the target analyte in unknown samples were obtained by regression analysis using linear fits of peak areas vs. analyte concentration, weighted 1/(concentration). • The quality of the assay was controlled by the quality control samples. • Either Experiment 1 or Experiment 2 could be used for the quantification of the GLP-1 peptide analogs in high resolution mode.

GLP-1 receptor [4] = molecular target: GLP-1 receptor (Homo sapiens, UniProt P43220); assay: cAMP assay, primary assay as described in WO 2016/198544; assay type: cell-based; conditions: in vitro potency at the GLP-1 receptor
Excerpt: as §1

[5] = Canine study, MEDI7219 tablets in acid-resistant capsules (Example 13); assay type: in vivo
Method: The formulations tested in this study contained the MEDI7219 (SEQ ID NO:2) peptide, whereas the SEQ ID NO:6 peptide was used in tablet formulations for the previous canine study in Example 12. Tablets were placed in acid-resistant capsules (one tablet/capsule) prior to dosing. […] (Table 20). This formulation contained 0.1 mg/kg MEDI7219 (SEQ ID NO:2) peptide and 300 mg total permeation enhancer (PE) consisting of a 1:2 ratio of sodium chenodeoxycholate to propyl gallate. This ratio worked better compared to a 2:1 ratio of these permeation enhancers (Group 9, Table 20). This study also confirmed the utility of Tris base as a pH stabilizer.

[6] = ID, 1 mg/kg peptide + 25 mg/kg Na CDC + 12.5 mg/kg PG, PBS pH 8.0
[7] = ID, 1 mg/kg peptide + 25 mg/kg Na CDC, PBS pH 8.0
[8] = ID, 1 mg/kg peptide + 25 mg/kg Tetradecylmaltoside, PBS pH 8.0
[9] = ID, 1 mg/kg peptide + 50 mg/kg Na CDC, PBS pH 8.0
[10] = ID, 1 mg/kg peptide + 50 mg/kg Tetradecylmaltoside, PBS pH 8.0
[11] = ID, 10 mg/kg peptide + 50 mg/kg Na CDC + 25 mg/kg PG, PBS pH 8.0
[12] = ID, 10 mg/kg peptide + 50 mg/kg Na CDC, PBS pH 8.0
[13] = ID, 10 mg/kg peptide + 50 mg/kg Tetradecylmaltoside, PBS pH 8.0
[14] = 1 mg/kg, ID, 1 mg/kg peptide, no permeation enhancer, PBS pH 8.0
[15] = iv, 0.01 mg/kg, 0.01 mg/kg peptide in PBS pH 8.0
[16] = ID, 1 mg/kg peptide + 50 mg/kg Na CDC + 25 mg/kg PG, PBS pH 8.0

Chain of GLP-1 receptor (Homo sapiens, UniProt P43220) (P43220 24-463): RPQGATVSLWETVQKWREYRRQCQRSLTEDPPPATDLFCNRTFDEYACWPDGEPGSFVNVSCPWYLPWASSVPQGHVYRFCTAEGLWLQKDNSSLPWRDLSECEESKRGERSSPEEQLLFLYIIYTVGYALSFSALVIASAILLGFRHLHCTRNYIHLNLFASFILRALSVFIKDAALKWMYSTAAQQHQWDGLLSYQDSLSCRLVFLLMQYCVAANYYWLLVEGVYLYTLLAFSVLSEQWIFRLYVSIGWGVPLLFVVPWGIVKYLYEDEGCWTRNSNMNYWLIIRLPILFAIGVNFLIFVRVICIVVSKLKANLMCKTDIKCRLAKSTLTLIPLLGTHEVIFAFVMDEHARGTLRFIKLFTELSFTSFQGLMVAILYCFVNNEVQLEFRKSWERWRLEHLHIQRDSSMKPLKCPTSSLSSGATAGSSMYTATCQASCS

## CC[C@H](C)[C@H](NC(=O)C(C)(Cc1ccccc1)NC(=O)[C@H](CCC(=O)O)NC(=O)[C@H](CCCCNC(=O)COCCOCCNC(=O)COCCOCCNC(=O)CC[C@H](NC(=O)CCCCCCCCCCCCCCCCC(=O)O)C(=O)O)NC(=O)[C@H](C)NC(=O)[C@H](C)NC(=O)[C@H](CCC(=O)O)NC(=O)CNC(=O)[C@H](CCC(=O)O)NC(=O)[C@H](CC(C)C)NC(=O)C(C)(Cc1ccccc1)NC(=O)[C@H](CO)NC(=O)C(C)(CO)NC(=O)[C@@H](NC(=O)[C@H](CC(=O)O)NC(=O)[C@H](CO)NC(=O)[C@@H](NC(=O)C(C)(Cc1ccccc1)NC(=O)[C@H](CO)NC(=O)CNC(=O)[C@H](CCC(=O)O)NC(=O)C(C)(C)NC(=O)[C@@H](N)Cc1c[nH]cn1)[C@@H](C)O)C(C)C)C(=O)N[C@@H](C)C(=O)NC(C)(Cc1ccccc1)C(=O)N[C@H](C(=O)N[C@H](C(=O)NC(C)(CCCCN)C(=O)NCC(=O)NCC(N)=O)C(C)C)C(C)C (stereo partly drawn) [SEQ ID NO: 3, Free-H-[AIB]-EGS-[αMePhe]-TSDV-[αMeSer]-S-[αMePhe]-LEGEAAK[(PEG2)2-γE-Stearate]-E-[αMePhe]-IA-[αMePhe]-VV-[αMeLys]-GG-amide]
[1]; [6]
  F: 0.28%
  AUC: 293 ng·h/mL
  Cmax: 39 ng/mL
  Tmax: 0.3 h
[1]; [7]
  F: 0.12%
  AUC: 121 ng·h/mL
  Cmax: 21.3 ng/mL
  Tmax: 0.3 h
[1]; [8]
  F: 0.08%
  AUC: 87.3 ng·h/mL
  Cmax: 5.4 ng/mL
  Tmax: 1 h
[1]; [9]
  F: 0.21%
  AUC: 212 ng·h/mL
  Cmax: 30.9 ng/mL
  Tmax: 0.5 h
[1]; [10]
  F: 0.06%
  AUC: 63.2 ng·h/mL
  Cmax: 5.8 ng/mL
  Tmax: 1 h
[1]; ID, 1 mg/kg peptide, 50 mg/kg sodium chenodeoxycholate and 25 mg/kg propyl gallate (to 0.39%)
  increase of oral bioavailability: ~20 fold
[1]; [11]
  F: 0.42%
  AUC: 4330 ng·h/mL
  Cmax: 670 ng/mL
  Tmax: 0.5 h
[1]; [12]
  F: 0.28%
  AUC: 2920 ng·h/mL
  Cmax: 380 ng/mL
  Tmax: 0.5 h
[1]; [13]
  F: 0.07%
  AUC: 705 ng·h/mL
  Cmax: 51.5 ng/mL
  Tmax: 0.5 h
[1]; Intravenous, 0.01 mg/kg peptide in PBS pH 8.0
  F: 100%
[1]; [14]
  AUC: 19.4 ng·h/mL
  Cmax: 3.16 ng/mL
  Tmax: 8 h
[1]; [15]
  AUC: 1030 ng·h/mL
  Cmax: 96.2 ng/mL
[1]; iv, 0.01 mg/kg, Intravenous, 0.01 mg/kg peptide in PBS pH 8.0, read-out: T ½ (converted)
  half-life: 2.9 h
[1]; ID, 1 mg/kg peptide + 25 mg/kg Na CDC + 12.5 mg/kg PG, PBS pH 8.0, read-out: T ½ (converted)
  half-life: 9.1 h
[1]; ID, 1 mg/kg peptide + 25 mg/kg Na CDC, PBS pH 8.0, read-out: T ½ (converted)
  half-life: 7.16 h
[1]; ID, 1 mg/kg peptide + 25 mg/kg Tetradecylmaltoside, PBS pH 8.0, read-out: T ½ (converted)
  half-life: 17.4 h
[1]; [16]
  AUC: 402 ng·h/mL
  Cmax: 58.1 ng/mL
  Tmax: 0.5 h
[1]; ID, 1 mg/kg peptide + 50 mg/kg Na CDC + 25 mg/kg PG, PBS pH 8.0, read-out: T ½ (converted)
  half-life: 9.9 h
[1]; ID, 1 mg/kg peptide + 50 mg/kg Na CDC, PBS pH 8.0, read-out: T ½ (converted)
  half-life: 9.3 h
[1]; ID, 1 mg/kg peptide + 50 mg/kg Tetradecylmaltoside, PBS pH 8.0, read-out: T ½ (converted)
  half-life: 10.3 h
[1]; ID, 10 mg/kg peptide + 50 mg/kg Na CDC + 25 mg/kg PG, PBS pH 8.0, read-out: T ½ (converted)
  half-life: 11 h
[1]; ID, 10 mg/kg peptide + 50 mg/kg Na CDC, PBS pH 8.0, read-out: T ½ (converted)
  half-life: 9.4 h
[1]; ID, 10 mg/kg peptide + 50 mg/kg Tetradecylmaltoside, PBS pH 8.0, read-out: T ½ (converted)
  half-life: 8.19 h

## CCCCCCCCCCCC(=O)N[C@@H](CCC(=O)NCCOCCOCC(=O)NCCOCCOCC(=O)NCCCC[C@H](NC(=O)[C@H](C)NC(=O)[C@@H](NC(=O)[C@](C)(Cc1ccccc1)NC(=O)[C@H](CCC(=O)O)NC(=O)[C@](C)(CCCCN)NC(=O)[C@H](C)NC(=O)[C@H](C)NC(=O)[C@H](CCC(=O)O)NC(=O)CNC(=O)[C@H](CCC(=O)O)NC(=O)[C@H](CC(C)C)NC(=O)[C@H](CCCCNC(=O)COCCOCCNC(=O)COCCOCCNC(=O)CC[C@H](NC(=O)CCCCCCCCCCC)C(=O)O)NC(=O)[C@H](CO)NC(=O)[C@](C)(CO)NC(=O)[C@@H](NC(=O)[C@H](CC(=O)O)NC(=O)[C@H](CO)NC(=O)[C@@H](NC(=O)[C@](C)(Cc1ccccc1)NC(=O)[C@H](CO)NC(=O)CNC(=O)[C@H](CCC(=O)O)NC(=O)C(C)(C)NC(=O)[C@@H](N)Cc1c[nH]cn1)[C@@H](C)O)C(C)C)[C@@H](C)CC)C(=O)N[C@H](C(=O)N[C@H](C(=O)N[C@@H](CCC(=O)O)C(=O)NCC(=O)NCC(N)=O)C(C)C)C(C)C)C(=O)O [MEDI7219, Free-H-[AIB]-EGS-[αMePhe]-TSDV-[αMeSer]-SK[(PEG2)2-γE-Lauroyl]-LEGEAA-[αMeLys]-E-[αMePhe]-IAK[(PEG2)2-γE-Lauroyl]-VVEGG-amide] (H-H[Aib]EGS[αMeF]TSDV[αMeS]SK([AEEA-AEEA-γGlu-Lauroyl])LEGEAA[αMeK]E[αMeF]IAK([AEEA-AEEA-γGlu-Lauroyl])VVEGG-NH2)
GLP-1 receptor [2]
  EC50: ~0.116 nM
[3]; 150 mg Na CDC and no PG
  F: ~2%
[3]; 150 mg PE, 1:2 Na CDC:PG ratio
  F: ~6%
[3]; 150 mg PE, 2:1 Na CDC:PG ratio
  F: ~7%
[3]; 6.5:1 Na CDC:PG ratio (130 mg Na CDC, 20 mg PG)
  F: ~4%
GLP-1 receptor [4]
  EC50: ~0.0039 nM
[5]; Intravenous, 0.01 mg/kg, 0.1 mg/mL in 50 mM Tris, 150 mM Mannitol, 0.02% Polysorbate 80, pH8.0
  F: 100%
[5]; Oral tablet in capsule, Group 8: 1 mg peptide, 100 mg Na CDC, 200 mg PG
  F: 10.7%
[5]; Oral tablet in capsule, Group 9: 1 mg peptide, 200 mg Na CDC, 100 mg PG
  F: 5.0%
[5]; Oral tablet in capsule, Group 12: 1 mg peptide, 33.3 mg Na CDC, 16.6 mg PG (NO TRIS)
  F: 0%
